One data set deals with E. coli ATCC 35218. It counts as cell-based. Summed up:
(§1)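 MICs determined by 2:1 serial broth microdilution in cation-adjusted Mueller-Hinton broth per CLSI M7-A6, using inoculum at 1 x 10^6 CFU/mL mixed 1:1 with peptoid solution. Three independent replicates, each with two parallel trials.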

In another data set the test system is B. subtilis ATCC 6633. It counts as cell-based. Summed up:
as §1

In another data set the test system is E. faecium mic80 (VRE). As to the kind of experiment: microbe, parasite or virus in culture. The conditions noted are these: E. faecium mic80 (VRE). The procedure, abridged:
(§2)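 Minimum inhibitory concentrations came from overnight 37°C cultures in Mueller Hinton medium seeded at 2–7 x 10^5 CFU/mL.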

The test system of a further data set is S. aureus C623 (MRSA). As to the kind of experiment: microbe, parasite or virus in culture. The conditions noted are these: S. aureus C623 (MRSA). Summed up:
as §2

Another data set relates to E. faecalis W61950 (VRE). As to the kind of experiment: microbe, parasite or virus in culture. The conditions noted are these: E. faecalis W61950 (VRE). Summed up: as §2
Another data set has as its system E. faecium T62764 (VRE). As to the kind of experiment: microbe, parasite or virus in culture. The settings on record: E. faecium T62764 (VRE). The procedure, abridged:
as §2

For a further data set, the system named is S. aureus ATCC25923. Description: microbe, parasite or virus in culture. The conditions noted are these: S. aureus ATCC25923. Summed up: as §2
Data set [1] deals with P. aeruginosa LES400 (MDR). Description: microbe, parasite or virus in culture. The conditions noted are these: P. aeruginosa LES400 (MDR). Summed up: as §2
Another data set concerns P. aeruginosa 9 (MDR). Description: microbe, parasite or virus in culture. The conditions noted are these: P. aeruginosa 9 (MDR). The procedure, abridged: as §2
The next data set concerns P. aeruginosa 213 (MDR). As to the kind of experiment: microbe, parasite or virus in culture. The conditions noted are these: P. aeruginosa 213 (MDR). Summed up: as §2
Data set [2] relates to K. pneumonia 63575 (ESBL). As to the kind of experiment: microbe, parasite or virus in culture. The settings on record: K. pneumonia 63575 (ESBL). The procedure, abridged: as §2
In the next data set the test system is E. faecalis ATCC29212. As to the kind of experiment: microbe, parasite or virus in culture. The settings on record: E. faecalis ATCC29212. The procedure, abridged:
as §2

Data set [3] concerns E. cloacae 218R Class C β-lactamase. As to the kind of experiment: microbe, parasite or virus in culture. The settings on record: E. cloacae 218R Class C β-lactamase. The procedure, abridged: as §2
Another data set has as its system P. maltophilia ATCC13637. As to the kind of experiment: microbe, parasite or virus in culture. The settings on record: P. maltophilia ATCC13637. Summed up:
as §2

The subject of data set [4] is P. aeruginosa H103 (wild type). As to the kind of experiment: microbe, parasite or virus in culture. The settings on record: P. aeruginosa H103 (wild type). The procedure, abridged:
as §2

Data set [5] has as its system 20 bacterial strains (13 Gram-negative, 7 Gram-positive). How it is done:
The MICs of test agents were measured using a modified broth micro-dilution method in Difco Mueller Hinton medium, on a panel of bacterial pathogens that were both susceptible and resistant to common antibiotics (S1 File). Briefly, serial dilutions were performed in 0.01% acetic acid containing 0.2% bovine serum albumin at 10-fold the desired final concentration. Ten μL of the 10-fold concentrated test reagents were added to each well of a 96-well polypropylene microtitre plate containing 90 μL of Mueller Hinton media per well. Bacteria were added to the plate from an overnight culture at a final concentration of 2–7 x 10^5 CFU/mL and incubated overnight at 37°C. The MIC is defined as the concentration at which no growth was observed.
Screening of peptoid antimicrobial activity against a panel of multidrug resistant superbugs was done according to the protocol described in the manuscript. The bacterial strains used in this panel included; P. aeruginosa PAO1 strain H103 [1], P. maltophilia ATCC#13637, S. aureus ATCC#25923 [1], E. faecalis ATCC#29212 [2], and E. cloacae 218R, constitutively expressing Class C chromosomal β-lactamase, were from the Hancock lab strains collection. An MRSA clinical isolate was kindly provided by Anthony Chow (Vancouver General Hospital, Vancouver, Canada). Two Klebsiella pneumoniae and two E. coli clinical isolates expressing extended spectrum β-lactamases (ESBL) were kindly provided by George Zhanel (Health Sciences Centre, Winnipeg, Canada). Vancomycin-resistant clinical isolates of Enterococcus faecalis and E. faecium were obtained from Ana M. Paccagnella (BC Centre for Disease Control, Vancouver, Canada). Three clinical isolates (#9, #198 and #213) of multi-drug resistant P. aeruginosa, were kindly provided by Carlos Kiffer (University of São Paulo, Brazil). […] Three P. aeruginosa clinical isolates of the Liverpool epidemic strain (LES) (H1027, H1030 and LES400) were all kindly provided by Craig Winstanley (University of Liverpool, UK). […] All tested bacterial strains were categorized as biohazard level 2 pathogens.

The test system of the next data set is S. aureus (ATCC 25923). Description: Murine model of invasive S. aureus infection. It counts as in vivo, CD1 mice. The conditions noted are these: mice, 4 mg/kg. How it is done: Animal experiments were performed in accordance with University of British Columbia Care Ethics Committee approval and guidelines as per animal care certificate #A04-0020. Female CD1 mice (6–8 week old) were weighed, marked, and injected with 200 μL of S. aureus (ATCC 25923) ~10^9 CFU/mouse suspended in Mueller Hinton broth containing 5% mucin and injected intraperitoneally. Four hours after infection, animals were treated with 4 mg/kg or 100μg per mouse of peptoid 1 (experimental group; n = 10) or an equivalent volume of saline (control group; n = 10). All animals were monitored two hours after each injection step, they were also evaluated at the end of the working day and the next morning a couple of hours prior to the experimental endpoint. Humane endpoints criteria; immobilization and shaking, were put down but none of the test subjects were evaluated to reach these endpoints prior to the experimental endpoint. The mice were euthanized 24 hours post-infection using CO2. The peritoneal cavity was exposed and washed with 5 mL PBS. […] Plates were incubated overnight at 37°C and colonies were counted the following day. […] The statistical differences between peptide treated and naïve mice were assessed using PRISM® (GraphPad Software Inc., San Diego, CA) using contingency tables Chi-square test, with a confidence interval of 99%. […]

Each structure is given as a SMILES string. ≈ marks a conversion by molar mass, not a printed value. Square brackets hold non-standard residues; d marks the D form. Peptide text beside a SMILES is read from it. Nspe = C[C@H](NCC(=O)O)c1ccccc1; Nlys = NCCCCNCC(=O)O

Consider one compound from publication PMC4744035, “In Vivo, In Vitro, and In Silico Characterization of Peptoids as Antimicrobial Agents” (PLoS ONE, 2016).

In the case of `C[C@@H](c1ccccc1)N(CC(N)=O)C(=O)CN(C(=O)CN(CCCCN)C(=O)CN(C(=O)CN(C(=O)CN(CCCCN)C(=O)CN(C(=O)CN(C(=O)CN(CCCCN)C(=O)CN(C(=O)CN(C(=O)CNCCCCN)[C@@H](C)c1ccccc1)[C@@H](C)c1ccccc1)[C@@H](C)c1ccccc1)[C@@H](C)c1ccccc1)[C@@H](C)c1ccccc1)[C@@H](C)c1ccccc1)[C@@H](C)c1ccccc1` [Peptoid 1, H-(NLys-Nspe-Nspe)4-NH2] (H-[Nlys][Nspe][Nspe][Nlys][Nspe][Nspe][Nlys][Nspe][Nspe][Nlys][Nspe][Nspe]-NH2), the “MIC E. coli” value with E. coli ATCC 35218 was found to be 6.3 µM (≈ 11.5 µg/mL). Besides, the “MIC B. subtilis” value with B. subtilis ATCC 6633 came out at 1.6 µM (≈ 2.91 µg/mL). Also, the MIC with E. faecium mic80 (VRE) was 2 µg/mL (≈ 1.1 µM); against S. aureus C623 (MRSA), 2 µg/mL (≈ 1.1 µM); against E. faecalis W61950 (VRE), 8 µg/mL (≈ 4.4 µM); in the data set on E. faecium T62764 (VRE), 2 µg/mL (≈ 1.1 µM); with S. aureus ATCC25923, 2 µg/mL (≈ 1.1 µM); in [1], 2 µg/mL (≈ 1.1 µM). Further, the MIC against P. aeruginosa 9 (MDR) was 16 µg/mL (≈ 8.79 µM); in the data set on P. aeruginosa 213 (MDR), 4 µg/mL (≈ 2.2 µM); in [2] it was 4 µg/mL (≈ 2.2 µM); with E. faecalis ATCC29212, 2 µg/mL (≈ 1.1 µM); in data set [3] it was 2 µg/mL (≈ 1.1 µM); in the data set on P. maltophilia ATCC13637, 2 µg/mL (≈ 1.1 µM). The compound further yielded an MIC in data set [4] of 2 µg/mL (≈ 1.1 µM). Besides, in data set [5] (7 Gram-positive strains), the “median MIC against all Gram-positive strains tested” value was determined as 2 µg/mL. For the same compound, in data set [5] (out of the 20 pathogens tested), the “number of pathogens with MIC ≤ 8 μg/mL” value is recorded as 19. For the same compound, in the data set on S. aureus (ATCC 25923), the toxicity result was “no medium-term toxicity”.
